Data: patent publication US11696903B2, “Compounds and methods for scavenging dicarbonyl electrophiles” (VANDERBILT UNIVERSITY, priority 2019, dated 2023)
“Also recorded” adds a separate entry of the source.

Tests used:
[1] = EtHOBA concentration in the colon by LC/ESI/MS/MS; format: in vivo; settings: 1.5 and 3.7 mg/ml, after 6 days of treatment
Protocol: FIGS. 3A and 3B show data from C57BL/6 mice were treated or not with various concentrations of EtHOBA. (A) Body weight was assessed every day. (B) After 6 days, mice were euthanized and EtHOBA was measured in the colon. n=5 mice/group.
The present inventors analyzed the effect of various concentrations of EtHOBA and its bioavailability in control mice. […] After 6 days of treatment, EtHOBA concentrations in the colon were analyzed using liquid chromatography electrospray ionization tandem mass spectrometry (LC/EST/MS/MS).

[2] = system: LG-histone adducts in A549 cells; assay: LG-lysyl adduct formation on histones in A549 cells (LC/ESI/MS/MS); format: cell-based, human; settings: stimulated A549, 30, 300 or 1000 μM EtSA, 20 μM AA 1 h
Protocol: FIGS. 11A, 11B, 11C, 11D, 11E, and 11F are a series of graphs showing that LG-lysine adducts of histones are found in cells and tissue, dependent on COX-2 activity. RAW264.7 mouse macrophage (A) and A549 human lung carcinoma (C) cells were stimulated to express COX-2, then given 20 μM arachidonic acid (AA) or vehicle. A subgroup of cells was preincubated 45 min with 50 μM indomethacin. As a measure of COX activity, PGE2 was determined by GC/MS from cell media prior to lysis (B and D). Nuclei were isolated, and histones were extracted and digested to individual amino acids prior to LC/EST/MS/MS analysis. *, p<0.05; ***, p<0.001 by ANOVA followed by Tukey's post-test (n≥5). (E). Histones were extracted from nuclei of rat liver, and analyzed as above for LG-lactam adduct. COX-2 protein was analyzed by Western blotting and plotted against lactam adduct levels. Each point corresponds to 1 liver, and shown is the line of regression (r^2=0.7237). Pearson r=0.8507; two-tailed p=0.0152. […]
(A). […] Histone proteins were analyzed by LC/ESI/MS/MS for LG-lysyl lactam adduct, n=2. (B) Stimulated A549 cells were pretreated with 30, 300, or 1000 μM EtSA prior to 1 h with 20 μM AA, and histones analyzed for LG-lysyl adduct. *, p<0.05 by one-way ANOVA followed by Dunnett's multiple comparisons post-test (n=3-5). […] Media was analyzed by GC/MS for PGE2 (n=3). […]

H. pylori = assay: Hp gastric colonization quantified by culture; format: in vivo, Helicobacter pylori; settings: INS-GAS mice, EtSA treatment
Protocol: (§1) As discussed further in the Examples, the human gastric epithelial cell line AGS was infected with Hp PMSS1±10 mM EtSA. FVB/N insulin-gastrin (INS-GAS) mice and Mongolian gerbils were infected for 8 wk with Hp PMSS1 and 7.13, respectively; EtSA (0.75% in water) was given to animals beginning one wk post-infection. Lys-LG adducts, a marker of electrophile reactions, and EtSA were quantified by LC/EST/MS/MS. Histology was analyzed on H&E staining. DNA damage was evaluated by pH2AX staining. Hp colonization was quantified by culture. Mucosal immune responses were determined by RNA profiling and by Luminex assay. Mice were imaged using PET/CT with ^18F-FDG (inflammation marker) and ^18F—NaF (tumor marker).
The effect of a scavenger of levuglandins and other dicarbonyls was investigated in transgenic INS-GAS mice, which have high circulating gastrin levels and develop atrophic gastritis, and dysplasia and carcinoma with H. pylori infection. Mice were infected with H. pylori, and then EtSA was administered in drinking water, starting 7 days after infection. After 8 weeks, EtSA levels were measured in the gastric tissues of uninfected and infected mice receiving this compound (FIG. 16A). […] There was no dysplasia or carcinoma in uninfected mice (FIG. 16D).

mucosal immune responses = assay: Gastritis and mucosal cytokines/chemokines in infected INS-GAS mice; format: in vivo; settings: EtSA
Protocol: as §1

DNA damage (pH2AX) = assay: DNA damage by pH2AX staining in infected mice; format: in vivo; settings: infected mice with EtSA treatment; p<0.05
Protocol: as §1

Structure (SMILES): CCc1ccc(O)c(CN)c1 [EtHOBA, 5-ethyl-2-hydroxybenzylamine]
- EtHOBA concentrations in the colon [1]: readily detected
- LG-histone adduct formation [2]: inhibited
- Hp colonization (H. pylori): not reduced; also recorded: not affected
- histologic gastritis (mucosal immune responses): not affected
- tissue cytokines and chemokines (mucosal immune responses): not affected
- decrease of DNA damage (DNA damage (pH2AX)): 71%
